Experimental data taken from publication PMC12434667 (Journal of Medicinal Chemistry, 2025).
Converted amounts (≈) assume the structure as drawn.

Legend:
LogD = assay type: physicochemical; conditions: 1-octanol/phosphate buffer, pH 7.4
FaSSIF solubility = assay type: physicochemical; conditions: kinetic from dmso stock
CDK2 = CDK2 (Homo sapiens, UniProt P24941); experiment: 14-hr AlphaLISA of CDK2 degradation in MKN1 CCNE1amp cells; assay type: cell-based; conditions: read-out: MKN1 CDK2 DC50
Microsomal stability [1] = assay type: in vitro ADME; conditions: human, liver microsomes
Rat PK = assay type: in vivo; conditions: in vivo; for Vd / clearance / half-life: iv, 2 mg/kg; for bioavailability: oral, 10 mg/kg
Microsomal stability [2] = assay type: in vitro ADME; conditions: rat, liver microsomes
MDR1 = MDR1 (Homo sapiens, UniProt P08183); experiment: MDCK-MDR1 efflux ratio; assay type: in vitro ADME; conditions: dog, MDCK-MDR1, pH 7.4
[3] = MDCK passive permeability; assay type: in vitro ADME, canine; conditions: dog, pH 7.4
[4] = tested on: panel of nonmutant kinases; experiment: Kinomescan panel; assay type: binding; conditions: for kinases tested showing >90% inhibition versus control: 1 μM, panel of 403 nonmutant kinases; for kinomescan S(10) score: 1 uM, nonmutant kinases with % Ctrl <10 / nonmutant kinases tested
CDK9/CyclinT1 = CDK9/CyclinT1 (Homo sapiens, UniProt P50750); experiment: Biochemical enzymatic inhibition assay; conditions: biochemical IC50 vs CDK2
CDK1/cyclinB1 = CDK1/cyclinB1 (Homo sapiens, UniProt P06493); conditions: biochemical IC50 vs CDK2
CDK2/CRBN = CDK2/CRBN (Homo sapiens, UniProt P24941+Q96SW2); experiment: AlphaLisa ternary complex formation assay; assay type: binding; conditions: compound 28 used as 100% control
HCC1569 tumor xenograft = HCC1569 tumor xenograft efficacy; assay type: in vivo, mouse; conditions: 150 mg/kg PO BID, 28 days
CYP3A4 = CYP3A4 (Homo sapiens, UniProt P08684); experiment: Cyp3A4 TDI; assay type: in vitro ADME
CDK6/CyclinD3 = CDK6/CyclinD3 (Homo sapiens, UniProt Q00534); experiment: Biochemical enzymatic inhibition assay; conditions: biochemical IC50 vs CDK2
CDK4/CyclinD3 = CDK4/CyclinD3 (Homo sapiens, UniProt P11802); experiment: Biochemical enzymatic inhibition assay; conditions: biochemical IC50 vs CDK2
[5] = CYP3A4 TDI (+NADPH), 30 min pre-incubation with NADPH
[6] = CYP3A4 TDI (-NADPH), 30 min pre-incubation without NADPH

Chain of MDR1 (P08183 whole entry, species assumed): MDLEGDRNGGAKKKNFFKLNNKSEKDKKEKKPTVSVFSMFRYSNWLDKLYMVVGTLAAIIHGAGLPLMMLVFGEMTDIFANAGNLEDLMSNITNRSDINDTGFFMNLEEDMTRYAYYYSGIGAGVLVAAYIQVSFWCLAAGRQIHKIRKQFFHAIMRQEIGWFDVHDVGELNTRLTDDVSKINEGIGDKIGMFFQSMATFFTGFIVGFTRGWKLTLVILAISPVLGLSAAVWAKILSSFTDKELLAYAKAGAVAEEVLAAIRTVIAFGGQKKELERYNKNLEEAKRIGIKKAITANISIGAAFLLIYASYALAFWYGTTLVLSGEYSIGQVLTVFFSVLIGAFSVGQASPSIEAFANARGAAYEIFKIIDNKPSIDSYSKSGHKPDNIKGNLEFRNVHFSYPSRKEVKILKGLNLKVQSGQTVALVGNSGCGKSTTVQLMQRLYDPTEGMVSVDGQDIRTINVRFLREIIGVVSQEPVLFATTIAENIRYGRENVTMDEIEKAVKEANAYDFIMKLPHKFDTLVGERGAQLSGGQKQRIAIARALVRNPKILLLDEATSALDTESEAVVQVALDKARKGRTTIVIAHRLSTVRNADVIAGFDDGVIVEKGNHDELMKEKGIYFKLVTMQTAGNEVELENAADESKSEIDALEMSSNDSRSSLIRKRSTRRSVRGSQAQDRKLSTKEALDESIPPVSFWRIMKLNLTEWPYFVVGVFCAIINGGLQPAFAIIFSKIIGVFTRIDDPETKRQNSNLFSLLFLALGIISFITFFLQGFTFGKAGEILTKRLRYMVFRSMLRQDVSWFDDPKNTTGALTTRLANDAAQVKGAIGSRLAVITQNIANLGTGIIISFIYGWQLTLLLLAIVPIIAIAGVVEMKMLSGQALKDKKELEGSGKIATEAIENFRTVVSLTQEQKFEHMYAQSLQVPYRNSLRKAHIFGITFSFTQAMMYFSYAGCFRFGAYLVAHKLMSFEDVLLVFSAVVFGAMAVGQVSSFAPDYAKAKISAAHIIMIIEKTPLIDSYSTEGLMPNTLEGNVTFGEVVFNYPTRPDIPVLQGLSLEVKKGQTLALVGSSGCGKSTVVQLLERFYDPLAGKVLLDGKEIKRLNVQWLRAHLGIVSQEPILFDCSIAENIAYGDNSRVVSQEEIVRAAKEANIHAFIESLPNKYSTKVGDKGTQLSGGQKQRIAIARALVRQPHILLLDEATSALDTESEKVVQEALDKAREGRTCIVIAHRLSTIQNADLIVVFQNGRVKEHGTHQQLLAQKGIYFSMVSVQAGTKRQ
Chain of CDK1/cyclinB1 (P14635 whole entry): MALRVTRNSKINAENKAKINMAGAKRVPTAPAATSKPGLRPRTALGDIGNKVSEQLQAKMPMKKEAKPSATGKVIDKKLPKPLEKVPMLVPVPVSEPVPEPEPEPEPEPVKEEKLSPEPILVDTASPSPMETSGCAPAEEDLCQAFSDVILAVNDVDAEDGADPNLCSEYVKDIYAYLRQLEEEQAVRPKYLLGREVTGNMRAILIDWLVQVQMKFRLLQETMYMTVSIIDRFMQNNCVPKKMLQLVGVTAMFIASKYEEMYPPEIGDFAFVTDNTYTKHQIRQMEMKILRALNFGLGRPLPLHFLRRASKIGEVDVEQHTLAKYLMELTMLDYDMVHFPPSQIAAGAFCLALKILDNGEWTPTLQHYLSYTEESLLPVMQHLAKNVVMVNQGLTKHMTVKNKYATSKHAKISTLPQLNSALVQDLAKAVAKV
Chain of CDK1/cyclinB1 (P06493 whole entry): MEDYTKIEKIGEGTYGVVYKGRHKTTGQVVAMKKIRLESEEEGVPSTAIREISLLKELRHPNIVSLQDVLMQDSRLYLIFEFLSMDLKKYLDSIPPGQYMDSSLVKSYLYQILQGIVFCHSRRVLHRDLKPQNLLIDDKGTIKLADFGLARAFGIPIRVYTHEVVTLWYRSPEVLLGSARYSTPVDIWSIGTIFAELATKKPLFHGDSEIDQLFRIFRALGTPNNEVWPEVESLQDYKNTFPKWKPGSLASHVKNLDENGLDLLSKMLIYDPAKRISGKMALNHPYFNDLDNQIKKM
Chain of CDK2/CRBN (Q16531 whole entry): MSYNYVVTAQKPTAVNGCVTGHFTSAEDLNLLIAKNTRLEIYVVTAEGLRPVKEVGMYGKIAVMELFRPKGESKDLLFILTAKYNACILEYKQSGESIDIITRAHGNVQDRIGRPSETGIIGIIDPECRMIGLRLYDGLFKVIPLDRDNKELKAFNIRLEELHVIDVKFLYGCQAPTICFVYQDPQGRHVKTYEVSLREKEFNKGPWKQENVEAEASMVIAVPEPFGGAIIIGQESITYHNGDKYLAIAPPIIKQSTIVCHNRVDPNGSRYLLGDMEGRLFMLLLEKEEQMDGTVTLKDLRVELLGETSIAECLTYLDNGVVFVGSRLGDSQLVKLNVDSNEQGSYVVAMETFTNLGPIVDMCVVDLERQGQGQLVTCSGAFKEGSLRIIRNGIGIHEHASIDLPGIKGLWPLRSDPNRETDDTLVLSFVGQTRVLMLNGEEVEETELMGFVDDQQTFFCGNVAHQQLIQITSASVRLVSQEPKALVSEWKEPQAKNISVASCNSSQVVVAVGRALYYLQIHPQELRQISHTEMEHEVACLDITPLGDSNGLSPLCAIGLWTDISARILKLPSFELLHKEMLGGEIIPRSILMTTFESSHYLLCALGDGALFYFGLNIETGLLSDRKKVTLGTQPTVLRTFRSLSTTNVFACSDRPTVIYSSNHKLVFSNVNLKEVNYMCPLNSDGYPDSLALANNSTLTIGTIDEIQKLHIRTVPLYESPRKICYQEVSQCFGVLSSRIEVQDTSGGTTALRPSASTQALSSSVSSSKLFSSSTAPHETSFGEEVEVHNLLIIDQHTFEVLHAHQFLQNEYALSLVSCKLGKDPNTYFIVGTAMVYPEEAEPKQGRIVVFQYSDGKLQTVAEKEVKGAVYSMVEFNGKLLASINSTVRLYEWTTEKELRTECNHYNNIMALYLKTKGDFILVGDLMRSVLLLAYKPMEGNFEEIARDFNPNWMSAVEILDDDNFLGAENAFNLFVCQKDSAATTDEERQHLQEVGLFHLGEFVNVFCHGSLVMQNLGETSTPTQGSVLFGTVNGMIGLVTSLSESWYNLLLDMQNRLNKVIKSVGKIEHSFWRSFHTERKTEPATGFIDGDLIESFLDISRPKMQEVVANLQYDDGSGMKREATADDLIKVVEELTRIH
Chain of CDK2/CRBN (Q96SW2 40-442): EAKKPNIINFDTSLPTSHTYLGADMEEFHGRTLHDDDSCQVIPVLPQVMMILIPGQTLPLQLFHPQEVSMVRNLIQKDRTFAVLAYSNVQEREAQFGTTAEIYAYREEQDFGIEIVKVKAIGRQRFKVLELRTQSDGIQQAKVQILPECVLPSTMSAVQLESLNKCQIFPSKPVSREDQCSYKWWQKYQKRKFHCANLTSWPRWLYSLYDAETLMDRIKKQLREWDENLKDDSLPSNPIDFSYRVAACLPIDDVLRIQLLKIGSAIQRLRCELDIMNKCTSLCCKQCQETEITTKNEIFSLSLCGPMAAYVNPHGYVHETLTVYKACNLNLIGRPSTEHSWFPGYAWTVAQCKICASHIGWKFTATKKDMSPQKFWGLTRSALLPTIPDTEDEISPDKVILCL
Chain of CYP3A4 (P08684 whole entry): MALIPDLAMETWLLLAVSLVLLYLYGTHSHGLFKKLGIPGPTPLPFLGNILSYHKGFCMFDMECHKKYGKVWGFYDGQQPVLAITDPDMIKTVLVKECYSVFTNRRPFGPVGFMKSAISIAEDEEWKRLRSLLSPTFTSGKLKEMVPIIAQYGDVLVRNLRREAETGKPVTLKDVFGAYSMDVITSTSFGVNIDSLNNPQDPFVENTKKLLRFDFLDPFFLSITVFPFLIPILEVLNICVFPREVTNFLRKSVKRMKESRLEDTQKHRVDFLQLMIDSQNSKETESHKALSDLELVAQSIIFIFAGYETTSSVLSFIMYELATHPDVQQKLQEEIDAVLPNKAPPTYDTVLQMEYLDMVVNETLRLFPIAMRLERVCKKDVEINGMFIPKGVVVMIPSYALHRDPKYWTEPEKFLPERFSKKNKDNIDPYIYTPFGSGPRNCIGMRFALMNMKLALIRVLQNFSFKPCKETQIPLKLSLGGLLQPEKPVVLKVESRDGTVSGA
Chain of CDK6/CyclinD3 (Q00534 whole entry): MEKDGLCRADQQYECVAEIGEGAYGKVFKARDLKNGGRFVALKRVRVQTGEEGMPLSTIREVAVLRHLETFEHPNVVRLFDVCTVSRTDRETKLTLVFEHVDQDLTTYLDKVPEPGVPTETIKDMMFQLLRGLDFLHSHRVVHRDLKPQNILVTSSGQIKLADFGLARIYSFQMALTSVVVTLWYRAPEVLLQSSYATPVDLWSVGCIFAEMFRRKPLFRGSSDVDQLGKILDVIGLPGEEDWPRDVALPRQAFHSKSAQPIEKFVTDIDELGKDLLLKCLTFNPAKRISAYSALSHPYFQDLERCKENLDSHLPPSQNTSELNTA
Chain of CDK6/CyclinD3 (P30281 whole entry partner): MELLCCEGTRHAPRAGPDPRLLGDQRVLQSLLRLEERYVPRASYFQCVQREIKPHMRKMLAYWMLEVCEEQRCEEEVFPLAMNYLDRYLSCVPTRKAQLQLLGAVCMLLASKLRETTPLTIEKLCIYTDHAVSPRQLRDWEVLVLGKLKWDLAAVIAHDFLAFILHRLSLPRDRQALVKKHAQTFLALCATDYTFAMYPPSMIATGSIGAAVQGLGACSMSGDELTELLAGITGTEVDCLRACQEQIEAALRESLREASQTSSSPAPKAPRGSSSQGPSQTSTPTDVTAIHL
Chain of CDK4/CyclinD3 (P11802 whole entry): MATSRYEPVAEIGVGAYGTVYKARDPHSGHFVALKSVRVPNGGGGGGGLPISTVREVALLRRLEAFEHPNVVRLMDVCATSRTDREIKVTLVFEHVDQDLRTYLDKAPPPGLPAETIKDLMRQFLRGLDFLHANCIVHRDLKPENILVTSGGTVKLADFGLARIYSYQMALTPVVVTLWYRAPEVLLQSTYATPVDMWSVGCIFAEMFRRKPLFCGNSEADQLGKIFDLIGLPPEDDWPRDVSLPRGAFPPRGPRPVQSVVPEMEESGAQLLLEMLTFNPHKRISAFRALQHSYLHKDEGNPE
Chain of CDK4/CyclinD3 (P30281 whole entry partner): as the sequence (P30281 whole entry partner) above

Compound `Cc1cc(S(=O)(=O)NCCO[C@H]2CC[C@H](CN3CCC(c4ccc5c(c4)n(C)c(=O)n5C4CCC(=O)NC4=O)CC3)CC2)ccc1Nc1ncc(C(F)(F)F)c([C@H]2CC[C@@](C)(O)CC2)n1` (stereo partly shown) [Compound 8] has a logD at 1 h (LogD) of 4.1, a solubility at 2 h (FaSSIF solubility) of 153 µM (≈ 142 µg/mL) and a DC50 (CDK2) of 0.0049 µM. It also gave a CLint scaled at 1 µM (Microsomal stability [1]) of 79 mL/min/kg, a Vd (Rat PK) of 15 L/kg and a clearance (Rat PK) of 59 mL/min/kg. For the same compound, the half-life (Rat PK) was 5.7 h, the bioavailability (Rat PK) was 1% and the CLint scaled at 1 µM (Microsomal stability [2]) was under 21 mL/min/kg. For the same compound, the efflux ratio at 120 min, 1 μM (MDR1) was over 30 and the Papp A→B at 120 min, 1 µM [3] was 1 ×10⁻⁶ cm/s.
With `CNS(=O)(=O)c1ccc(Nc2ncc(C(F)(F)F)c([C@H]3CC[C@@](C)(O)CC3)n2)c(C)c1` [Compound 3] the “kinases tested showing >90% inhibition versus control” value [4] was 2/403, the “selectivity vs CDK9” value (CDK9/CyclinT1) was over 357 fold and the “selectivity vs CDK1” value (CDK1/cyclinB1) was 47 fold.
With `Cc1cc(S(=O)(=O)N[C@H]2CC[C@H](CN3CCN(c4ccc(NC5CCC(=O)NC5=O)cc4F)CC3)CC2)ccc1Nc1ncc(C(F)(F)F)c(N2CCC[C@](C)(O)C2)n1` (stereo partly shown) [Compound 27] the “CDK2/CRBN/degrader ternary complex normalized AUC” value (CDK2/CRBN) was 35.
For `Cc1cc(S(=O)(=O)N[C@H]2C[C@H](CN3CCN(c4ccc(C5CCC(=O)NC5=O)c(Cl)c4)CC3)C2)ccc1Nc1ncc(C(F)(F)F)c(N2CCC[C@](C)(O)C2)n1` (stereo partly shown) [Compound 23], the “CDK2/CRBN/degrader ternary complex normalized AUC” value (CDK2/CRBN) was 4.8.
In the case of `Cc1cc(S(=O)(=O)NC2CC(N3CCN(CC4CCN(c5cccc6c5n(C)c(=O)n6C5CCC(=O)NC5=O)CC4)CC3)C2)ccc1Nc1ncc(C(F)(F)F)c(N2CCC[C@](C)(O)C2)n1` (stereo partly shown) [Compound 15], the “CDK2/CRBN/degrader ternary complex normalized AUC” value (CDK2/CRBN) is reported as 9.5.
`Cc1cc(S(=O)(=O)NCCO[C@H]2CC[C@H](CN3CCC(c4ccc5c(c4F)n(C)c(=O)n5C4CCC(=O)NC4=O)CC3)CC2)ccc1Nc1ncc(C(F)(F)F)c([C@H]2CC[C@@](C)(O)CC2)n1` (stereo partly shown) [Compound 9] showed a logD at 1 h (LogD) of 4.6, a solubility at 2 h (FaSSIF solubility) of 173 µM (≈ 163 µg/mL) and a DC50 (CDK2) of 0.012 µM. For the same compound, the CLint scaled at 1 µM (Microsomal stability [1]) was 102 mL/min/kg, the Vd (Rat PK) was 11 L/kg and the clearance (Rat PK) was 45 mL/min/kg. For the same compound, the half-life (Rat PK) was 4.9 h, the bioavailability (Rat PK) was 5% and the CLint scaled at 1 µM (Microsomal stability [2]) was 26 mL/min/kg. It also gave an efflux ratio at 120 min, 1 μM (MDR1) of over 54 and a Papp A→B at 120 min, 1 µM [3] of 2 ×10⁻⁶ cm/s.
With `COCc1cc(C(=O)Nc2cc([C@H]3CC[C@@H](OC(=O)NC(C)C)C3)[nH]n2)n(C)n1` [PF-07104091, reference compound] the antitumor activity (HCC1569 tumor xenograft) was “stable disease (30 to −30% is stable disease (0% = Tumor Stasis))” and the “day 28 %dTV (mean ± SEM)” value (HCC1569 tumor xenograft; HCC1569 xenograft mice) was 4 ± 15%.
With `Cc1cc(S(=O)(=O)N[C@H]2CC[C@H](CN3CCN(c4cccc(NC5CCC(=O)NC5=O)c4)CC3)CC2)ccc1Nc1ncc(C(F)(F)F)c(N2CCC[C@](C)(O)C2)n1` (stereo partly shown) [Compound 28] the “CDK2/CRBN/degrader ternary complex normalized AUC” value (CDK2/CRBN) was 100.
For `Cc1cc(S(=O)(=O)N[C@H]2CC[C@H](N3CCN(CC4CCN(c5cccc6c5n(C)c(=O)n6C5CCC(=O)NC5=O)CC4)CC3)CC2)ccc1Nc1ncc(C(F)(F)F)c(N2CCC[C@](C)(O)C2)n1` (stereo partly shown) [Compound 14], the “CDK2/CRBN/degrader ternary complex normalized AUC” value (CDK2/CRBN) was 10.
With `CNS(=O)(=O)c1ccc(Nc2ncc(C(F)(F)F)c([C@H]3CC[C@](C)(O)CC3)n2)c(C)c1` [Compound 4, trans-4-[[4-(4-Hydroxy-4-methyl-cyclohexyl)-5-(trifluoromethyl)pyrimidin-2-yl]amino]-N,3-dimethyl-benzenesulfonamide] the “selectivity vs CDK1” value (CDK1/cyclinB1) was 16 fold.
With `CNS(=O)(=O)c1ccc(Nc2ncc(C(F)(F)F)c(N3CCC[C@](C)(O)C3)n2)c(C)c1` [Compound 7] the “kinases tested showing >90% inhibition versus control” value [4] was 4/403, the “selectivity vs CDK9” value (CDK9/CyclinT1) was over 5000 fold and the “selectivity vs CDK1” value (CDK1/cyclinB1) was 42 fold.
With `Cc1cc(S(=O)(=O)NC2CC(N3CCN(CC4CCN(c5ccc(NC6CCC(=O)NC6=O)cc5C)CC4)CC3)C2)ccc1Nc1ncc(C(F)(F)F)c(N2CCC[C@](C)(O)C2)n1` (stereo partly shown) [Compound 21] the “CDK2/CRBN/degrader ternary complex normalized AUC” value (CDK2/CRBN) was 4.0.
`[2H][C@@](C)(COC1CCC(CN2CCN(c3ccc4c(c3F)n(C)c(=O)n4C3CCC(=O)NC3=O)CC2)CC1)NS(=O)(=O)c1ccc(Nc2ncc(C(F)(F)F)c(N3CCC[C@](C)(O)C3)n2)c(C)c1` (stereo partly shown) [Compound 13] gave a logD at 1 h (LogD) of 4.6, a solubility at 2 h (FaSSIF solubility) of 62 µM (≈ 59.5 µg/mL) and a DC50 (CDK2) of 0.001 µM. The CLint scaled at 1 µM (Microsomal stability [1]) was 143 mL/min/kg, the CLint scaled at 1 µM (Microsomal stability [2]) was 25 mL/min/kg and the efflux ratio at 120 min, 1 μM (MDR1) was 91. For the same compound, the Papp A→B at 120 min, 1 µM [3] was 2.3 ×10⁻⁶ cm/s.
With `Cc1cc(S(=O)(=O)NC2CC(N3CC[C@@H](OC4CN(c5cccc6c5n(C)c(=O)n6C5CCC(=O)NC5=O)C4)[C@H](F)C3)C2)ccc1Nc1ncc(C(F)(F)F)c(N2CCC[C@](C)(O)C2)n1` (stereo partly shown) [Compound 20] the “CDK2/CRBN/degrader ternary complex normalized AUC” value (CDK2/CRBN) was 7.9.
In the case of `Cc1cc(S(=O)(=O)N[C@]2(C)C[C@@H](N3CCN(CC4CCN(c5ccc6c(c5F)n(C)c(=O)n6C5CCC(=O)NC5=O)CC4)CC3)C2)ccc1Nc1ncc(C(F)(F)F)c(N2CCC[C@](C)(O)C2)n1` (stereo partly shown) [Compound 17], the “CDK2/CRBN/degrader ternary complex normalized AUC” value (CDK2/CRBN) is reported as 13.
With `Cc1cc(S(=O)(=O)N[C@H]2CC[C@H](CN3CCN(c4ccc(C5CCC(=O)NC5=O)c(Cl)c4)CC3)CC2)ccc1Nc1ncc(C(F)(F)F)c(N2CCC[C@](C)(O)C2)n1` (stereo partly shown) [Compound 24] the “CDK2/CRBN/degrader ternary complex normalized AUC” value (CDK2/CRBN) was 92 and the “CYP3A4 inhibition (in words)” value (CYP3A4) was “time- and NADPH-dependent inhibition”.
For `Cc1cc(S(=O)(=O)NC2CC(N3CCN(CC4CCN(c5cccc6c5n(C)c(=O)n6C5CCC(=O)NC5=O)CC4)C4(CC4)C3)C2)ccc1Nc1ncc(C(F)(F)F)c(N2CCC[C@](C)(O)C2)n1` (stereo partly shown) [Compound 19], the “CDK2/CRBN/degrader ternary complex normalized AUC” value (CDK2/CRBN) was 27.
For `Cc1cc(S(=O)(=O)NC2CCC(CN3CCN(c4cccc(C5CCC(=O)NC5=O)c4)CC3)CC2)ccc1Nc1ncc(C(F)(F)F)c(N2CCC[C@](C)(O)C2)n1` (stereo partly shown) [Compound 26], the “CDK2/CRBN/degrader ternary complex normalized AUC” value (CDK2/CRBN) was 0.
With `CNS(=O)(=O)c1ccc(Nc2ncc3cc(Cl)c(=O)n(C4CCCC4)c3n2)c(C)c1` [Compound 1] the “selectivity over CDK6” value (CDK6/CyclinD3) was over 124 fold, the “kinases tested showing >90% inhibition versus control” value [4] was 18/403 and the “selectivity over CDK4” value (CDK4/CyclinD3) was over 44 fold.
With `C[C@]1(O)CCCN(c2nc(Nc3ccc(S(=O)(=O)N[C@H]4CC[C@H](CN5CCN(c6ccc(C7CCC(=O)NC7=O)cc6F)CC5)CC4)cc3F)ncc2C(F)(F)F)C1` (stereo partly shown) [Compound 31] the “kinomescan S(10) score” value [4] was 0, the IC50 (CYP3A4; [5]) was over 10 µM and the IC50 (CYP3A4; [6]) was over 10 µM.
For `Cc1cc(S(=O)(=O)N[C@H]2CC[C@H](CN3CCN(c4ccc(C5CCC(=O)NC5=O)cc4F)CC3)CC2)ccc1Nc1ncc(C(F)(F)F)c(N2CCC[C@](C)(O)C2)n1` (stereo partly shown) [Compound 29], the “kinomescan S(10) score” value [4] was 0.007.
In the case of `C[C@]1(O)CCCN(c2nc(Nc3ccc(S(=O)(=O)N[C@H]4CC[C@H](CN5CCN(c6ccc(C7CCC(=O)NC7=O)cc6F)CC5)CC4)cc3Cl)ncc2C(F)(F)F)C1` (stereo partly shown) [Compound 32], the “kinomescan S(10) score” value [4] is reported as 0, the IC50 (CYP3A4; [5]) is reported as over 10 µM and the IC50 (CYP3A4; [6]) is reported as over 10 µM.
For `Cc1cc(S(=O)(=O)N[C@H]2C[C@H](CN3CC(c4ccc(C5CCC(=O)NC5=O)c(Cl)c4)C3)C2)ccc1Nc1ncc(C(F)(F)F)c(N2CCC[C@](C)(O)C2)n1` (stereo partly shown) [Compound 22], the “CDK2/CRBN/degrader ternary complex normalized AUC” value (CDK2/CRBN) was 0.
